Like-named read-outs stand apart in the source and are kept apart here.
Columns and labels:
Assay type in all cases: cell-based
[1] = test system: Chlamydomonas reinhardtii cells; experiment: Microscopy of treated cells (organelles, lipid droplets); conditions: FIG. 1
Experimental: (§1) The screening library included 43,736 compounds (ChemBridge, Corp). […] A sub-set of compounds were retested using an 8-point dose response assay (0.25-30 μM). Compounds were further assessed visually using a Nikon Ti-inverted microscope (60×) to reconfirm lipid droplet accumulation was induced.

[2] = test system: Chlamydomonas reinhardtii cells; experiment: Lipid accumulation using lipophilic dye Nile Red; conditions: for lipid accumulation: 0.5 μM to 15.0 μM, FIG. 3; for lipid accumulation over 72 hours: 30 μM test compound, FIG. 4
Experimental: […] At the indicated times 200 μL cells were removed from each well and optical density and nile red fluorescence were measured.
Lipid accumulation over a period of 72 hours was also measured (30 μM test compound) using lipophilic dye Nile Red, as shown in FIG. 4. […] FIGS. 12A-12C show representative images of C. reinhardtii cultures that were treated with 10 μM of representative test compounds of Formula Ia, Formula IIa, and Formula IIIa. The corresponding lipid accumulation was visualized using confocal microscopy after 72 hours in culture.

[3] = test system: Chlamydomonas reinhardtii cells; experiment: Fatty acid assay; conditions: 30 μM, FIG. 5
[4] = test system: Chlamydomonas reinhardtii cells; experiment: Triglyceride assay; conditions: 5 μM, FIG. 6
[5] = test system: Chlamydomonas reinhardtii cells; experiment: Cellular chlorophyll and carotenoid levels; conditions: 30 μM, FIG. 7
[6] = test system: Chlamydomonas reinhardtii cells; experiment: Levels of proteins required for photosynthesis; conditions: Rubisco large and small sub unit, PSa D, PSb A, phosphoribulokinase, histone; FIG. 8
[7] = test system: Chlamydomonas reinhardtii cells; experiment: Cellular carbohydrate levels; conditions: 30 μM, FIG. 9
[8] = test system: Chlamydomonas reinhardtii cells; experiment: Total protein levels in cells; conditions: FIG. 10
[9] = test system: Chlamydomonas reinhardtii CC125; experiment: Lipid accumulation in algal cells; conditions: 0.63 μM to 50 μM, FIG. 11A-11C
Experimental: (§2) Compounds 1, 62, and 136 were assayed in algal species Chlamydomonas reinhardtii CC125, Chlorella sorokiniana UTEX 1230, Chlorella vulgaris UTEX 395, and Tetrachlorella alterns UTEX 2453 at concentrations ranging from 0.63 μM to 50 μM.

[10] = test system: Chlorella sorokiniana UTEX 1230; experiment: Lipid accumulation in algal cells; conditions: 0.63 μM to 50 μM, FIG. 11A-11C
Experimental: as §2

[11] = test system: Chlorella vulgaris UTEX 395; experiment: Lipid accumulation in algal cells; conditions: 0.63 μM to 50 μM, FIG. 11A-11C
Experimental: as §2

[12] = test system: Tetrachlorella alterns UTEX 2453; experiment: Lipid accumulation in algal cells; conditions: 0.63 μM to 50 μM, FIG. 11A-11C
Experimental: as §2

[13] = test system: Chlamydomonas reinhardtii; experiment: 8-point dose response assay (0.25-30 μM); parameters: reference not given here; conditions: for Dose Response Assay 0.25 μM: 0.25 μM compound; for Dose Response Assay 0.625 μM: 0.625 μM compound; for Dose Response Assay 2.5 μM: 2.5 μM compound; for Dose Response Assay 5 μM: 5 μM compound; for Dose Response Assay 10 μM: 10 μM compound; for Dose Response Assay 15 μM: 15 μM compound; for Dose Response Assay 30 μM: 30 μM compound
Experimental: A large scale in vivo high throughput screen (HTS) was performed to identify small compounds that stimulate lipid production and accumulation using the model organism Chlamydomonas reinhardtii. The HTS employed a 384-well microplate format in which cells were allowed to grow in the presence of the test compounds at 10 μM final concentration for 72 hours.
as §1

[14] = 8-point dose response, Nile Red lipid accumulation
[15] = 1.25 μM compound, 8-point dose response, Nile Red lipid accumulation

SMILES | Dose Response Assay 0.25 μM [13, 14] | Dose Response Assay 0.625 μM [13, 14] | Dose Response Assay 1.25 μM [13, 15] | Dose Response Assay 2.5 μM [13, 14] | Dose Response Assay 5 μM [13, 14] | Dose Response Assay 10 μM [13, 14] | Dose Response Assay 15 μM [13, 14] | Dose Response Assay 30 μM [13, 14] | further results
CN(CCC#N)C12CC3CC(CC(C3)C1)C2 [Compound 136, 3-(adamantan-1-yl(methyl)amino)propanenitrile] |  |  |  |  |  |  |  |  | disruption of major organelles including nucleus, endoplasmic reticulum, and chloroplast [1]: does not disrupt major organelles; lipid accumulation [2]: increased lipid accumulation; lipid accumulation over 72 hours [2]: increased lipid accumulation; fatty acid levels [3]: increased fatty acid levels; triacylglyercol levels [4]: increased triacylglyercol levels; carotenoid levels [5]: did not significantly alter; levels of chlorophyll A (Chl A) [5]: did not significantly alter; levels of chlorophyll B (Chl B) [5]: did not significantly alter; levels of proteins required for photosynthesis [6]: did not significantly affect; carbohydrate levels [7]: increased carbohydrate levels; total protein levels [8]: None of the test compounds significantly affected; lipid accumulation [9]: stimulated lipid accumulation; lipid accumulation [10]: stimulated lipid accumulation; lipid accumulation [11]: stimulated lipid accumulation; lipid accumulation [12]: stimulated lipid accumulation
COc1ccccc1N1CCN(Cc2ccc(O)cc2)CC1 [Compound 62, 4-((4-(2-methoxyphenyl)piperazin-1-yl)methyl)phenol] |  |  |  |  |  |  |  |  | disruption of major organelles including nucleus, endoplasmic reticulum, and chloroplast [1]: does not disrupt major organelles; lipid accumulation [2]: increased lipid accumulation; lipid accumulation over 72 hours [2]: increased lipid accumulation; fatty acid levels [3]: increased fatty acid levels; triacylglyercol levels [4]: increased triacylglyercol levels; carotenoid levels [5]: did not significantly alter; levels of chlorophyll A (Chl A) [5]: did not significantly alter; levels of chlorophyll B (Chl B) [5]: did not significantly alter; levels of proteins required for photosynthesis [6]: minor effects; carbohydrate levels [7]: increased carbohydrate levels; total protein levels [8]: None of the test compounds significantly affected; lipid accumulation [9]: stimulated lipid accumulation; lipid accumulation [10]: stimulated lipid accumulation; lipid accumulation [11]: stimulated lipid accumulation; lipid accumulation [12]: stimulated lipid accumulation
COc1ccc(CCN(C)Cc2ccc([N+](=O)[O-])cc2)cc1OC [Compound 1, 2-(3,4-dimethoxyphenyl)-N-methyl-N-(4-nitrobenzyl)ethan-1-amine] |  |  |  |  |  |  |  |  | disruption of major organelles including nucleus, endoplasmic reticulum, and chloroplast [1]: does not disrupt major organelles; lipid accumulation [2]: increased lipid accumulation; lipid accumulation over 72 hours [2]: increased lipid accumulation; fatty acid levels [3]: increased fatty acid levels; triacylglyercol levels [4]: increased triacylglyercol levels; carotenoid levels [5]: did not significantly alter; levels of chlorophyll A (Chl A) [5]: did not significantly alter; levels of chlorophyll B (Chl B) [5]: did not significantly alter; levels of proteins required for photosynthesis [6]: did not significantly affect; carbohydrate levels [7]: increased carbohydrate levels; total protein levels [8]: None of the test compounds significantly affected; lipid accumulation [9]: stimulated lipid accumulation; lipid accumulation [10]: stimulated lipid accumulation; lipid accumulation [11]: stimulated lipid accumulation; lipid accumulation [12]: stimulated lipid accumulation
O=C(Nc1ccccc1C(=O)NCc1ccccc1)c1ccc([N+](=O)[O-])cc1 [Compound 53] | 1.06 | 1.38 | 1.13 | 1.1 | 1.42 | 1.57 | 1.61 | 2.49 | 
O=C(Nc1ccc([N+](=O)[O-])cc1)c1c(F)c(F)c(F)c(F)c1F [Compound 56] | 1.2 | 1.2 | 1.34 | 1.8 | 2.58 | 2.71 | 1.74 | 1.92 | 
Cc1cccc(N2CCN(Cc3ccc([N+](=O)[O-])cc3)CC2)c1C [Compound 5] | 0.97 | 0.85 | 0.80 | 0.91 | 1.28 | 2.07 | 1.96 | 2.81 | 
Fc1ccc(CN2CCN(c3ccccc3Cl)CC2)cc1 [Compound 69] | 1.05 | 0.96 |  | 3.01 | 2.44 | 3.49 | 3.49 | 2.54 | Dose Response Assay 1.25 μM [13]: 1.29
Cc1ccc(S(=O)(=O)c2ccc(-c3ccc([N+](=O)[O-])cc3)cc2)cc1 [Compound 2] | 0.96 | 1.01 | 0.94 | 0.99 | 1.1 | 1.53 | 1.34 | 2.11 | 
Cc1ccsc1C=C(C#N)c1nc(-c2ccc([N+](=O)[O-])cc2)cs1 [Compound 30] | 1.15 | 1.05 | 1.16 | 0.84 | 0.99 | 0.82 | 1.37 | 1.73 | 
CC(=O)NC1=C(N2CCN(Cc3ccccc3)CC2)C(=O)c2ccccc2C1=O [Compound 134] | 0.97 | 1.06 |  | 1.32 | 1.77 | 1.31 | 1.97 | 2.14 | Dose Response Assay 1.25 μM [13]: 0.93
Brc1ccc(CN2CCN(c3ccccc3)CC2)cc1 [Compound 86] | 0.98 | 1.01 |  | 2.39 | 2.29 | 2.71 | 3.38 | 3.76 | Dose Response Assay 1.25 μM [13]: 1.69
O=C1CC(N2CCc3ccccc3C2)C(=O)N1c1ccc([N+](=O)[O-])cc1 (stereo not shown) [Compound 58] | 1.06 | 0.94 | 1.14 | 0.90 | 1.22 | 1.15 | 1.42 | 1.56 | 
O=[N+]([O-])c1ccccc1CN1CCN(CC2CC3C=CC2C3)CC1 (stereo not shown) [Compound 39] | 1.17 | 1.13 | 0.99 | 1.18 | 1.18 | 0.88 | 1.57 | 1.38 | 
COc1cc(CN2CCN(Cc3ccccc3)CC2)cc(OC)c1 [Compound 99] | 0.98 | 0.84 |  | 1.4 | 1.96 | 2.96 | 3.37 | 4.22 | Dose Response Assay 1.25 μM [13]: 0.97

Reference: patent publication US10351883B2, “Compounds for increasing lipid synthesis and storage” (NUtech Ventures, priority 2015, dated 2019)
